Experimental data published in the supplement of paper PMC4862054.

system: BT-474; experiment: normalised response (% of control), CellTox Green; higher = less cell death (100 = DMSO, 0 = benzethonium chloride kill control); settings: incubation time: 72 h
Outline: (§1)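 Each entry is the normalised signal at a single concentration within a series. The series comprised 5 concentrations in 10-fold steps over a compound-specific 10,000-fold range, placed in 384-well plates into which breast cancer cell lines were seeded as 20 µl suspension and incubated 72 h. CellTox Green (485/520 nm) fluorescence and then CellTiter-Glo luminescence were read, with signals normalised per plate to 0.1 % DMSO (100) and a positive kill control (0).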

| Structure (SMILES) | normalised response |
| --- | --- |
| Cn1c(=O)n(-c2ccc(C(C)(C)C#N)cc2)c2c3cc(-c4cnc5ccccc5c4)ccc3ncc21 [Dactolisib] (100 nM) | 104% |
| Cn1cncc1[C@@](N)(c1ccc(Cl)cc1)c1ccc2c(c1)c(-c1cccc(Cl)c1)cc(=O)n2C [Tipifarnib] (1000 nM) | 100% |
| CC(C)(C#N)c1cc(Cn2cncn2)cc(C(C)(C)C#N)c1 [Anastrozole] (1000 nM) | 99.8% |
| COc1ccccc1S(=O)(=O)Nc1ccc2c(c1)CN(C)C(=O)N2 [PFI-1] (1000 nM) | 98.7% |

system: BT-549; experiment: as above; settings: incubation time: 72 h
Outline: as §1

| Structure (SMILES) | normalised response |
| --- | --- |
| Cn1c(=O)n(-c2ccc(C(C)(C)C#N)cc2)c2c3cc(-c4cnc5ccccc5c4)ccc3ncc21 [Dactolisib] (100 nM) | 134% |
| Cn1cncc1[C@@](N)(c1ccc(Cl)cc1)c1ccc2c(c1)c(-c1cccc(Cl)c1)cc(=O)n2C [Tipifarnib] (1000 nM) | 136% |
| CC(C)(C#N)c1cc(Cn2cncn2)cc(C(C)(C)C#N)c1 [Anastrozole] (1000 nM) | 106% |
| COc1ccccc1S(=O)(=O)Nc1ccc2c(c1)CN(C)C(=O)N2 [PFI-1] (1000 nM) | 111% |

system: CAL-120; experiment: as above; settings: incubation time: 72 h
Outline: as §1

| Structure (SMILES) | normalised response |
| --- | --- |
| Cn1c(=O)n(-c2ccc(C(C)(C)C#N)cc2)c2c3cc(-c4cnc5ccccc5c4)ccc3ncc21 [Dactolisib] (100 nM) | 89.3% |
| Cn1cncc1[C@@](N)(c1ccc(Cl)cc1)c1ccc2c(c1)c(-c1cccc(Cl)c1)cc(=O)n2C [Tipifarnib] (1000 nM) | 97.4% |
| CC(C)(C#N)c1cc(Cn2cncn2)cc(C(C)(C)C#N)c1 [Anastrozole] (1000 nM) | 101% |
| COc1ccccc1S(=O)(=O)Nc1ccc2c(c1)CN(C)C(=O)N2 [PFI-1] (1000 nM) | 111% |

system: CAL-148; experiment: as above; settings: incubation time: 72 h
Outline: as §1

| Structure (SMILES) | normalised response |
| --- | --- |
| Cn1c(=O)n(-c2ccc(C(C)(C)C#N)cc2)c2c3cc(-c4cnc5ccccc5c4)ccc3ncc21 [Dactolisib] (100 nM) | 72.8% |
| Cn1cncc1[C@@](N)(c1ccc(Cl)cc1)c1ccc2c(c1)c(-c1cccc(Cl)c1)cc(=O)n2C [Tipifarnib] (1000 nM) | 96% |
| CC(C)(C#N)c1cc(Cn2cncn2)cc(C(C)(C)C#N)c1 [Anastrozole] (1000 nM) | 93.9% |
| COc1ccccc1S(=O)(=O)Nc1ccc2c(c1)CN(C)C(=O)N2 [PFI-1] (1000 nM) | 103% |

system: CAL-51; experiment: as above; settings: incubation time: 72 h
Outline: as §1

| Structure (SMILES) | normalised response |
| --- | --- |
| Cn1c(=O)n(-c2ccc(C(C)(C)C#N)cc2)c2c3cc(-c4cnc5ccccc5c4)ccc3ncc21 [Dactolisib] (100 nM) | 104% |
| Cn1cncc1[C@@](N)(c1ccc(Cl)cc1)c1ccc2c(c1)c(-c1cccc(Cl)c1)cc(=O)n2C [Tipifarnib] (1000 nM) | 57.2% |
| CC(C)(C#N)c1cc(Cn2cncn2)cc(C(C)(C)C#N)c1 [Anastrozole] (1000 nM) | 113% |
| COc1ccccc1S(=O)(=O)Nc1ccc2c(c1)CN(C)C(=O)N2 [PFI-1] (1000 nM) | 116% |

system: CAL-85-1; experiment: as above; settings: incubation time: 72 h
Outline: as §1

| Structure (SMILES) | normalised response |
| --- | --- |
| Cn1c(=O)n(-c2ccc(C(C)(C)C#N)cc2)c2c3cc(-c4cnc5ccccc5c4)ccc3ncc21 [Dactolisib] (100 nM) | 94.4% |
| Cn1cncc1[C@@](N)(c1ccc(Cl)cc1)c1ccc2c(c1)c(-c1cccc(Cl)c1)cc(=O)n2C [Tipifarnib] (1000 nM) | 98.8% |
| CC(C)(C#N)c1cc(Cn2cncn2)cc(C(C)(C)C#N)c1 [Anastrozole] (1000 nM) | 110% |
| COc1ccccc1S(=O)(=O)Nc1ccc2c(c1)CN(C)C(=O)N2 [PFI-1] (1000 nM) | 121% |

system: DU-4475; experiment: as above; settings: incubation time: 72 h
Outline: as §1

| Structure (SMILES) | normalised response |
| --- | --- |
| Cn1c(=O)n(-c2ccc(C(C)(C)C#N)cc2)c2c3cc(-c4cnc5ccccc5c4)ccc3ncc21 [Dactolisib] (100 nM) | 94.5% |
| Cn1cncc1[C@@](N)(c1ccc(Cl)cc1)c1ccc2c(c1)c(-c1cccc(Cl)c1)cc(=O)n2C [Tipifarnib] (1000 nM) | 95.6% |
| CC(C)(C#N)c1cc(Cn2cncn2)cc(C(C)(C)C#N)c1 [Anastrozole] (1000 nM) | 100% |
| COc1ccccc1S(=O)(=O)Nc1ccc2c(c1)CN(C)C(=O)N2 [PFI-1] (1000 nM) | 107% |

system: HCC1143; experiment: as above; settings: incubation time: 72 h
Outline: as §1

| Structure (SMILES) | normalised response |
| --- | --- |
| Cn1c(=O)n(-c2ccc(C(C)(C)C#N)cc2)c2c3cc(-c4cnc5ccccc5c4)ccc3ncc21 [Dactolisib] (100 nM) | 109% |
| Cn1cncc1[C@@](N)(c1ccc(Cl)cc1)c1ccc2c(c1)c(-c1cccc(Cl)c1)cc(=O)n2C [Tipifarnib] (1000 nM) | 110% |
| CC(C)(C#N)c1cc(Cn2cncn2)cc(C(C)(C)C#N)c1 [Anastrozole] (1000 nM) | 61.9% |
| COc1ccccc1S(=O)(=O)Nc1ccc2c(c1)CN(C)C(=O)N2 [PFI-1] (1000 nM) | 95% |

system: HCC1599; experiment: as above; settings: incubation time: 72 h
Outline: as §1

| Structure (SMILES) | normalised response |
| --- | --- |
| Cn1c(=O)n(-c2ccc(C(C)(C)C#N)cc2)c2c3cc(-c4cnc5ccccc5c4)ccc3ncc21 [Dactolisib] (100 nM) | 103% |
| Cn1cncc1[C@@](N)(c1ccc(Cl)cc1)c1ccc2c(c1)c(-c1cccc(Cl)c1)cc(=O)n2C [Tipifarnib] (1000 nM) | 90.8% |
| CC(C)(C#N)c1cc(Cn2cncn2)cc(C(C)(C)C#N)c1 [Anastrozole] (1000 nM) | 102% |
| COc1ccccc1S(=O)(=O)Nc1ccc2c(c1)CN(C)C(=O)N2 [PFI-1] (1000 nM) | 110% |

system: HCC1937; experiment: as above; settings: incubation time: 72 h
Outline: as §1

| Structure (SMILES) | normalised response |
| --- | --- |
| Cn1c(=O)n(-c2ccc(C(C)(C)C#N)cc2)c2c3cc(-c4cnc5ccccc5c4)ccc3ncc21 [Dactolisib] (100 nM) | 65% |
| Cn1cncc1[C@@](N)(c1ccc(Cl)cc1)c1ccc2c(c1)c(-c1cccc(Cl)c1)cc(=O)n2C [Tipifarnib] (1000 nM) | 45.6% |
| CC(C)(C#N)c1cc(Cn2cncn2)cc(C(C)(C)C#N)c1 [Anastrozole] (1000 nM) | 106% |
| COc1ccccc1S(=O)(=O)Nc1ccc2c(c1)CN(C)C(=O)N2 [PFI-1] (1000 nM) | 91.9% |

system: HDQ-P1; experiment: as above; settings: incubation time: 72 h
Outline: as §1

| Structure (SMILES) | normalised response |
| --- | --- |
| Cn1c(=O)n(-c2ccc(C(C)(C)C#N)cc2)c2c3cc(-c4cnc5ccccc5c4)ccc3ncc21 [Dactolisib] (100 nM) | 109% |
| Cn1cncc1[C@@](N)(c1ccc(Cl)cc1)c1ccc2c(c1)c(-c1cccc(Cl)c1)cc(=O)n2C [Tipifarnib] (1000 nM) | 102% |
| CC(C)(C#N)c1cc(Cn2cncn2)cc(C(C)(C)C#N)c1 [Anastrozole] (1000 nM) | 111% |
| COc1ccccc1S(=O)(=O)Nc1ccc2c(c1)CN(C)C(=O)N2 [PFI-1] (1000 nM) | 109% |

system: Hs578T; experiment: as above; settings: incubation time: 72 h
Outline: as §1

| Structure (SMILES) | normalised response |
| --- | --- |
| Cn1c(=O)n(-c2ccc(C(C)(C)C#N)cc2)c2c3cc(-c4cnc5ccccc5c4)ccc3ncc21 [Dactolisib] (100 nM) | 108% |
| Cn1cncc1[C@@](N)(c1ccc(Cl)cc1)c1ccc2c(c1)c(-c1cccc(Cl)c1)cc(=O)n2C [Tipifarnib] (1000 nM) | 108% |
| CC(C)(C#N)c1cc(Cn2cncn2)cc(C(C)(C)C#N)c1 [Anastrozole] (1000 nM) | 62.7% |
| COc1ccccc1S(=O)(=O)Nc1ccc2c(c1)CN(C)C(=O)N2 [PFI-1] (1000 nM) | 98.2% |

system: MCF-10A; experiment: as above; settings: incubation time: 72 h
Outline: as §1

| Structure (SMILES) | normalised response |
| --- | --- |
| Cn1c(=O)n(-c2ccc(C(C)(C)C#N)cc2)c2c3cc(-c4cnc5ccccc5c4)ccc3ncc21 [Dactolisib] (100 nM) | 108% |
| Cn1cncc1[C@@](N)(c1ccc(Cl)cc1)c1ccc2c(c1)c(-c1cccc(Cl)c1)cc(=O)n2C [Tipifarnib] (1000 nM) | 73.9% |
| CC(C)(C#N)c1cc(Cn2cncn2)cc(C(C)(C)C#N)c1 [Anastrozole] (1000 nM) | 105% |
| COc1ccccc1S(=O)(=O)Nc1ccc2c(c1)CN(C)C(=O)N2 [PFI-1] (1000 nM) | 105% |

system: MDA-MB-231; experiment: as above; settings: incubation time: 72 h
Outline: as §1

| Structure (SMILES) | normalised response |
| --- | --- |
| Cn1c(=O)n(-c2ccc(C(C)(C)C#N)cc2)c2c3cc(-c4cnc5ccccc5c4)ccc3ncc21 [Dactolisib] (100 nM) | 108% |
| Cn1cncc1[C@@](N)(c1ccc(Cl)cc1)c1ccc2c(c1)c(-c1cccc(Cl)c1)cc(=O)n2C [Tipifarnib] (1000 nM) | 103% |
| CC(C)(C#N)c1cc(Cn2cncn2)cc(C(C)(C)C#N)c1 [Anastrozole] (1000 nM) | 104% |
| COc1ccccc1S(=O)(=O)Nc1ccc2c(c1)CN(C)C(=O)N2 [PFI-1] (1000 nM) | 105% |

system: MDA-MB-436; experiment: as above; settings: incubation time: 72 h
Outline: as §1

| Structure (SMILES) | normalised response |
| --- | --- |
| Cn1c(=O)n(-c2ccc(C(C)(C)C#N)cc2)c2c3cc(-c4cnc5ccccc5c4)ccc3ncc21 [Dactolisib] (100 nM) | 110% |
| Cn1cncc1[C@@](N)(c1ccc(Cl)cc1)c1ccc2c(c1)c(-c1cccc(Cl)c1)cc(=O)n2C [Tipifarnib] (1000 nM) | 94.4% |
| CC(C)(C#N)c1cc(Cn2cncn2)cc(C(C)(C)C#N)c1 [Anastrozole] (1000 nM) | 103% |
| COc1ccccc1S(=O)(=O)Nc1ccc2c(c1)CN(C)C(=O)N2 [PFI-1] (1000 nM) | 115% |

system: MDA-MB-453; experiment: as above; settings: incubation time: 72 h
Outline: as §1

| Structure (SMILES) | normalised response |
| --- | --- |
| Cn1c(=O)n(-c2ccc(C(C)(C)C#N)cc2)c2c3cc(-c4cnc5ccccc5c4)ccc3ncc21 [Dactolisib] (100 nM) | 98% |
| Cn1cncc1[C@@](N)(c1ccc(Cl)cc1)c1ccc2c(c1)c(-c1cccc(Cl)c1)cc(=O)n2C [Tipifarnib] (1000 nM) | 107% |
| CC(C)(C#N)c1cc(Cn2cncn2)cc(C(C)(C)C#N)c1 [Anastrozole] (1000 nM) | 96.5% |
| COc1ccccc1S(=O)(=O)Nc1ccc2c(c1)CN(C)C(=O)N2 [PFI-1] (1000 nM) | 121% |

system: MDA-MB-468; experiment: as above; settings: incubation time: 72 h
Outline: as §1

| Structure (SMILES) | normalised response |
| --- | --- |
| Cn1c(=O)n(-c2ccc(C(C)(C)C#N)cc2)c2c3cc(-c4cnc5ccccc5c4)ccc3ncc21 [Dactolisib] (100 nM) | 134% |
| Cn1cncc1[C@@](N)(c1ccc(Cl)cc1)c1ccc2c(c1)c(-c1cccc(Cl)c1)cc(=O)n2C [Tipifarnib] (1000 nM) | 105% |
| CC(C)(C#N)c1cc(Cn2cncn2)cc(C(C)(C)C#N)c1 [Anastrozole] (1000 nM) | 85.1% |
| COc1ccccc1S(=O)(=O)Nc1ccc2c(c1)CN(C)C(=O)N2 [PFI-1] (1000 nM) | 140% |

system: MFM-223; experiment: as above; settings: incubation time: 72 h
Outline: as §1

| Structure (SMILES) | normalised response |
| --- | --- |
| Cn1c(=O)n(-c2ccc(C(C)(C)C#N)cc2)c2c3cc(-c4cnc5ccccc5c4)ccc3ncc21 [Dactolisib] (100 nM) | 99.3% |
| Cn1cncc1[C@@](N)(c1ccc(Cl)cc1)c1ccc2c(c1)c(-c1cccc(Cl)c1)cc(=O)n2C [Tipifarnib] (1000 nM) | 101% |
| CC(C)(C#N)c1cc(Cn2cncn2)cc(C(C)(C)C#N)c1 [Anastrozole] (1000 nM) | 101% |
| COc1ccccc1S(=O)(=O)Nc1ccc2c(c1)CN(C)C(=O)N2 [PFI-1] (1000 nM) | 87.8% |

system: BT-474; experiment: normalised response (% of control), CellTiter-Glo; higher = more viable cells (100 = DMSO, 0 = benzethonium chloride kill control); settings: incubation time: 72 h
Outline: as §1

| Structure (SMILES) | normalised response |
| --- | --- |
| Cn1c(=O)n(-c2ccc(C(C)(C)C#N)cc2)c2c3cc(-c4cnc5ccccc5c4)ccc3ncc21 [Dactolisib] (100 nM) | 62.1% |
| Cn1cncc1[C@@](N)(c1ccc(Cl)cc1)c1ccc2c(c1)c(-c1cccc(Cl)c1)cc(=O)n2C [Tipifarnib] (1000 nM) | 80.5% |
